Test results taken from US20150290099A1, “NOVEL PSEUDOCERAMIDE COMPOUND AND PRODUCTION METHOD FOR SAME” (AMOREPACIFIC CORPORATION, priority 2012, published 2015).

What was measured:
[1] = test system: Keraskin™ artificial skin; test: Recovery of damaged artificial skin (measurement of transepithelial electrical resistance); format: cell-based; conditions: for Change of TEER (%): Keraskin artificial skin, TEER after 24 h post-incubation divided by the initial value
Experimental: Transepithelial electrical resistance was measured in order to test recovery of damaged artificial skin by the compound of Example 2. Dodecanoic acid 2-dodecanoylamino-3-hydroxy-2-hydroxymethyl-propyl ester obtained from the Example 2 and phosphate buffered saline (PBS), octyl methoxycinnamate (OMC) and PC-104 were tested for comparison.
Transepithelial electrical resistance (TEER) of Keraskin™ purchased from MCTT was measured after 22 hours of pre-incubation. After placing the Keraskin™ on a 6-well plate, 400 μL of a medium was added in an insert and 5 mL of the medium was added outside the insert such that an even level was achieved inside and outside the insert. Then, measurement was made with the electrode tips of a resistance meter inside and outside the insert. TEER was measured for all the inserts, prior to the test, after treatment with the substances of Example 2 and Comparative Examples 1-3 and 24 hours after post-incubation. The TEER after the post-incubation was divided by the initial value to calculate the change in %.

artificial skin = test: Quantitative analysis of ceramide in artificial skin; format: cell-based; set-up: C18SM: unit not given here; conditions: for C18SM / ceramide in artificial skin (ng/mg skin): artificial skin, LC analysis, corrected for skin weight
Experimental: Artificial skin was weighed and put in a 4-mL glass vial. After adding 2400 μL of CHCl3/MeOH (=½) and 100 μL of IS STD, the artificial skin was cut into small pieces with scissors. After sonication for 30 minutes, solutions mixing sodium lauryl sulfate (SLS) to each of dodecanoic acid 2-dodecanoylamino-3-hydroxy-2-hydroxymethyl-propyl ester obtained from the Example 2, phosphate buffered saline (PBS), octyl methoxycinnamate (OMC) and PC-104, as described in Table 2, were filtered through a PTFE syringe filter, and 1250 μL of each filtrate was transferred to an EP tube.
After completely removing the solvent using a speed vacuum dryer, the residue was redissolved by adding 100 μL of an analytical mobile phase. After centrifugation, only the supernatant was taken and analyzed after transferring to an LC vial. The concentration of ceramide was corrected for the weight of the artificial skin.

[2] = test substance mixed with sodium lauryl sulfate (SLS)

## CCCCCCCCCCCC(=O)NC(CO)(CO)COC(=O)CCCCCCCCCCC [Example 2, dodecanoic acid 2-dodecanoylamino-3-hydroxy-2-hydroxymethyl-propyl ester]
[1]
  Change of TEER (%): 70.8%
[1]; compared with PC-104
  effect of recovering damaged artificial skin (TEER), in words: higher than the conventionally used PC-104
Artificial skin; [2]
  C18SM: 1811.5
  ceramide in artificial skin (ng/mg skin): 1152.4 ng/mg skin
Artificial skin; compared with PC-104
  ceramide content in the artificial skin, in words: higher than that for PC-104

## CCCCCCCCCCCCCCCC(=O)N(CCO)CC(O)CN(CCO)C(=O)CCCCCCCCCCCCCCC [Comparative Example 3]
[1]
  Change of TEER (%): 35.7%
Artificial skin; [2]
  C18SM: 1141.1
  ceramide in artificial skin (ng/mg skin): 995.5 ng/mg skin

## CCCCC(CC)COC(=O)C=Cc1ccc(OC)cc1 (stereo not shown) [Comparative Example 2, octyl methoxycinnamate]
[1]
  Change of TEER (%): 30.9%
Artificial skin; PBS instead of SLS
  C18SM: 1747.3
  ceramide in artificial skin (ng/mg skin): 990.8 ng/mg skin
Artificial skin; [2]
  C18SM: 843.6
  ceramide in artificial skin (ng/mg skin): 758.3 ng/mg skin
